In general, EC50 refers to the midpoint of the concentration-response curve.

Results on 13 compounds are retold here after patent US7737136B2 (N.V. Organon, priority 2002, dated 2010).

Where only a bound is given, the exact number is not on record here.

The first assay has as its target T1, human progesterone receptor-B (Homo sapiens, UniProt P06401).
T1 construct: expressed in transfected cells; host or cells: Chinese hamster ovary (CHO) cells, line CHO-PRB-pMMTV-LUC 1E2-A2
T1 sequence (P06401 1-933): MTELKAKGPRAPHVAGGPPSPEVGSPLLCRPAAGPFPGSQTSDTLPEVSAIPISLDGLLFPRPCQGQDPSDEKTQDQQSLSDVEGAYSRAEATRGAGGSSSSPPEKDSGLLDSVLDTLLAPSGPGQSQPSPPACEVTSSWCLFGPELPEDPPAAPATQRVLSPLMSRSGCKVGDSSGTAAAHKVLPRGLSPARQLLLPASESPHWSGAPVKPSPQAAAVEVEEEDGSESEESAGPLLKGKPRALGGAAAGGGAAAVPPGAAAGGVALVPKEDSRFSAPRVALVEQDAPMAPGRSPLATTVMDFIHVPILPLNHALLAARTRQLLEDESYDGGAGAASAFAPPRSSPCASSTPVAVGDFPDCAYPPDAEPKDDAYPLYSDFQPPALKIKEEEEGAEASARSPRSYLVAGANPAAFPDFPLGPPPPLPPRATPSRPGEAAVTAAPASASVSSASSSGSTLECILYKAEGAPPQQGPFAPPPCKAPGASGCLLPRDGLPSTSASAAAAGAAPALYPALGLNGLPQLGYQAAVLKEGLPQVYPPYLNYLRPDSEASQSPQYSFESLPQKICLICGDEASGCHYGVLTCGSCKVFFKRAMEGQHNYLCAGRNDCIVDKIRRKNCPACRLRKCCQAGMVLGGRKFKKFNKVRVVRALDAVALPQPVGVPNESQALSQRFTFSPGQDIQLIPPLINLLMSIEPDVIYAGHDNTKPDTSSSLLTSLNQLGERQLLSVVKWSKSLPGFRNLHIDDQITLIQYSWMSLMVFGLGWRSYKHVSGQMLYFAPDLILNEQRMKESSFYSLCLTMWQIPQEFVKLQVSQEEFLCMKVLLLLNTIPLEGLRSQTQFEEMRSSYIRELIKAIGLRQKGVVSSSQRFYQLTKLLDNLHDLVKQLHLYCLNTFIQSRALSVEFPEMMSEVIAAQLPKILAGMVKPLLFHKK
Briefly: Progesterone receptor-B transactivation assay, progestagenic (agonist) activity, CHO-PRB-pMMTV-LUC 1E2-A2 cells. Format: cell-based.
Settings: not given
On the procedure: The (anti-)progestagenic activity of a compound of the invention (EC 50 and intrinsic activity) was determined in an in vitro bioassay of Chinese hamster ovary (CHO) cells stably transfected with the human progesterone receptor-B expression plasmid and with a reporter plasmid in which the MMTV-promoter is linked to the luciferase reporter gene. […] The cells were cultured with charcoal-treated supplemented defined bovine calf serum from Hyclone (Utah, USA) in Dulbecco's Modified Eagles Medium/Nutrient Mixture F-12 (DMEM/HAM F12 in ratio 1:1) from Gibco (Paisley, UK).
As to `CCCN[C@H]1CCCN2c3cc(Cl)ccc3Oc3ccccc3[C@H]12` (relative stereo) [Example 37, trans-N-Propyl-7-chloro-2,3,4,14b-tetrahydro-1H-dibenzo[b,f]pyrido[1,2-d][1,4]oxazepine-1-amine], the EC50 lay in the range of 100 to 10000 nM.

Compound `N[C@H]1CCCN2c3cc(F)ccc3Oc3ccccc3[C@H]12` (relative stereo) [Example 1, trans-7-Fluoro-2,3,4,14b-tetrahydro-1H-dibenzo[b,f]pyrido[1,2-d][1,4]oxazepine-1-amine] gave a concentration giving a half-maximal response (EC50) of 100 to 10000 nM.

Staying with this assay, now noted: CHO cells stably transfected with human progesterone receptor-B and MMTV-luciferase reporter; read-out: Progestagenic activity EC50.
With `FC(F)(F)C(=S)NC1CCCN2c3cc(Cl)ccc3Cc3ccccc3C12` (stereo not shown) [Example 20], the EC50 was less than 10 nM. Take `CC(C)(C)OC(=O)Nc1cc2c(cc1Cl)N1CCC[C@H](NC(=O)C(F)(F)F)[C@H]1c1ccccc1O2` (relative stereo) [Example 46, trans-N-(7-Chloro-2,3,4,14b-tetrahydro-1-(2,2,2-trifluoroacetylamino)1H-dibenzo[b,f]pyrido[1,2-d][1,4]oxazepin-8-yl)carbamic Acid 1,1-dimethylethyl Ester]: the EC50 lay within 10 to 100 nM. As to `O=C(N[C@H]1CCCN2c3cc(Cl)ccc3Nc3ccccc3[C@H]12)C(F)(F)F` (relative stereo) [Example 78, trans-N-(7-chloro-1,2,3,4,10,14b-hexahydrodibenzo[b,f]pyrido[1,2-d][1,4]diazepin-1-yl)-2,2,2-trifluoroacetamide], the concentration giving a half-maximal response (EC50) lay in the range of 10 to 100 nM. In the case of `O=C(N[C@H]1CCCN2c3cc(Cl)ccc3Sc3ccccc3[C@H]12)C(F)(F)F` (relative stereo) [Example 6, trans-2,2,2-Trifluoro-N-(7-chloro-2,3,4,14b-tetrahydro-1H-dibenzo[b,f]pyrido[1,2-d][1,4]thiazepin-1-yl)acetamide], the concentration for a half-maximal effect (EC50) is less than 10 nM.

With `FC(F)(F)C(=S)N[C@H]1CCCN2c3cc(Cl)ccc3Oc3ccccc3[C@H]12` (relative stereo) [Example 19], the half-maximal effective concentration (EC50) was less than 10 nM. As for `O=C(N[C@H]1CCCN2c3cc(Cl)ccc3Oc3c(F)cccc3[C@H]12)C(F)(F)F` (relative stereo) [Example 72, trans-N-(7-Chloro-11-fluoro-2,3,4,14b-tetrahydro-1H-dibenzo[b,f]pyrido[1,2-d][1,4]oxazepin-1-yl)-2,2,2-trifluoroacetamide], the EC50 fell in the range of 10 to 100 nM. With `N#Cc1cccc2c1N1CCC[C@H](NC(=O)C(F)(F)F)[C@H]1c1ccccc1O2` (relative stereo) [Example 53, trans-2,3,4,14b-Tetrahydro-1-[(trifluoroacetyl)amino]-1H-dibenzo[b,f]pyrido[1,2-d][1,4]oxazepine-6-carbonitrile], the concentration for a half-maximal effect (EC50) is less than 10 nM. With `CS(=O)(=O)N(c1cc2c(cc1Cl)N1CCC[C@H](NC(=O)C(F)(F)F)[C@H]1c1ccccc1O2)S(C)(=O)=O` (relative stereo) [Example 44, trans-N-(7-Chloro-2,3,4,14b-tetrahydro-8-[bis(methylsulfonyl)amino]-1H-dibenzo[b,f]pyrido[1,2-d][1,4]oxazepin-1-yl)-2,2,2-trifluoroacetamide], the half-maximal effective concentration (EC50) fell in the range of 100 to 10000 nM. As to `N#Cc1ccc2c(c1)N1CCC[C@H](NC(=O)C(F)(F)F)[C@H]1c1ccccc1O2` (relative stereo) [Example 63, trans-2,3,4,14b-Tetrahydro-1-[(trifluoroacetyl)amino]-1H-dibenzo[b,f]pyrido[1,2-d][1,4]oxazepine-7-carbonitrile], the half-maximal effective concentration (EC50) is less than 10 nM. As for `N#Cc1ccc2c(c1)Oc1ccc(Cl)cc1N1CCC[C@H](NC(=O)C(F)(F)F)[C@@H]21` (relative stereo) [Example 69, trans-7-Chloro-2,3,4,14b-tetrahydro-1-[(trifluoroacetyl)amino]-1H-dibenzo[b,f]pyrido[1,2-d][1,4]oxazepine-12-carbonitrile], the concentration giving a half-maximal response (EC50) lay within 10 to 100 nM. As to `CC(C)CN[C@H]1CCCN2c3cc(Cl)ccc3Oc3ccccc3[C@H]12` (relative stereo) [Example 36, trans-N-(2-Methylpropyl)-7-chloro-2,3,4,14b-tetrahydro-1H-dibenzo[b,f]pyrido[1,2-d][1,4]oxazepine-1-amine], the EC50 is 100 to 10000 nM.
